# Measurements reported in paper PMC7884382, “A Phase 1 study of RO6870810, a novel bromodomain and extra-terminal protein inhibitor, in patients with NUT carcinoma, other solid tumours, or diffuse large B-cell lymphoma” (British Journal of Cancer, 2020).
# Experiment: RO6870810 plasma pharmacokinetics
# Format: in vivo, human
# Experimental: The determination of RO6870810 PK was another secondary objective. RO6870810 plasma levels were measured during treatment and during the follow-up period. Venous blood samples were collected on multiple days during cycle 1 and on day 1 of subsequent cycles. Complete PK assessment parameters are included in the Supplementary Methods. Patients with sufficient data to determine PK parameters were included in the PK analysis population.
# Formal hypothesis testing was not performed for this Phase 1 study. The sample size was based on a standard 3 + 3 dose-escalation design and was considered sufficient to evaluate the safety and clinical activity of RO6870810. AEs were coded using the current Medical Dictionary for Regulatory Activities, and safety and clinical efficacy were summarised using descriptive statistics. The 95% CI for the objective response rate was calculated using Wilson’s score method with continuity correction, and PFS was analysed using the Kaplan–Meier method. For the PK analyses, key exposure parameters such as maximum plasma concentration (Cmax) and area under the curve were summarised with descriptive statistics, and dose-exposure relationships were plotted graphically. Percentage changes in CD11b from baseline by flow cytometry were summarised with descriptive statistics and plotted over time. The relationship between percentage change from baseline in CD11b (average of three measurements taken pre-dose, at 2 h and at 4 h) on day 15 and the RO6870810 dose was plotted. To investigate the relationship between individual percentage changes in CD11b from baseline and RO6870810 concentration on day 15, the nonparametric regression LOESS curve fitting (locally weighted scatterplot smoothing) method was applied.
# RO6870810 plasma concentrations were assessed in blood samples collected as follows:
# Cycle 1, day 1: Blood samples were collected before and immediately after injection and 0.25, 0.5, 1, 2, 4, 6, 8, and 10 hours after the injection was completed
# Cycle 1, day 2: Blood samples were collected 24 hours (pre-dose) and 28 hours (4 hours after receiving a second dose) after the injection on day 1 was completed
# Cycle 1, day 8: A blood sample was drawn at the visit as a random value
# Cycle 1, day 15: Blood samples were drawn before and immediately after injection and 0.25, 0.5, 1, 2, and 4 hours after the injection was completed
# Cycle 1, day 22: Blood samples were drawn at the visit as a random value (28-day treatment cycle only)
# Cycle X, day 1: On day 1 of all cycles after cycle 1, blood samples were drawn as a random value during the study visit
# A blood sample was drawn as a random value during the end-of-treatment visit on early termination
structure (smiles),measurement,setting,value
Cc1sc2c(c1C)C(c1ccc(Cl)cc1)=N[C@@H](CC(=O)NCCCN1CCN(C)CC1)c1nnc(C)n1-2 [RO6870810],Dose-exposure relationship (Cmax and area under the curve over 24 h),"0.03-0.65 mg/kg, cycle 1, day 1",dose-proportional
same,Absorption,"SC, across dose levels",rapid absorption
same,Time to Cmax,"SC, days 1 and 15 of cycle 1",≤ 1 h
same,"Time to Cmax, median","SC, days 1 and 15 of cycle 1",0.5 h
same,half-life,"human, plasma, sc",≥ 10 h
same,Clearance,in vivo,bodyweight dependent
same,Interpatient variability of Cmax,in vivo,38%
same,Interpatient variability of area under the curve over 24 h,in vivo,38%
same,Metabolites in plasma,leftover plasma samples screened,no metabolites were found
